Source: patent US5409946A, “Isoxazole, isothiazole and pyrazole compounds that enhance cognitive function” (Abbott Laboratories, priority 1993, dated 1995)
“Also recorded” adds a separate entry of the source. Read-outs that look alike come from different tables or passages of the source.

How the values were obtained:
[1] = test system: basal forebrain neurotransmission / cortical cerebral blood flow; assay: Cerebral blood flow (laser-doppler flowmetry) and mean arterial pressure with basal forebrain stimulation; type: in vivo, male Sprague-Dawley rats
Description: Methods for surgical preparation of rats for electrical stimulation of brain and measurement of CBF have been previously described (Nakai et al., Am. J. Physiol., 1982, 243: 226) and are summarized below.
Studies are conducted on male Sprague-Dawley rats that are maintained in a thermally-controlled (26°-27° C.), light-cycled (7.00 hour on-19.00 hour off) environment, fed standard rat chow and given water ad libitum. Anesthesia is induced with halothane (3.5%; balance O2) delivered through a nose mask and maintained at 2% during the initial surgery. Thin-wall vinyl catheters (o.d.=0.03 inch) are placed in each femoral artery and vein, and the trachea is cannulated.
Animals are subsequently co-anesthetized with urethane (1.5 g/kg, s.c.) and placed in a stereotaxic frame with the head positioned so that the floor of the IVth ventricle was horizontal (incisor bar position: -11 mm. ). After connecting the tracheal cannula to a small-animal respirator, the animals are temporarily paralyzed with d-tubocurarine (0.6 mg/kg/h, i.m.), and ventilated (80 cpm) with 100% O2. Arterial pressure (AP) and heart rate (HR) are continuously monitored through one of the arterial catheters connected to a Statham P23Db transducer that is coupled to a chart recorder. The level of anesthesia during surgery or subsequent experimental testing is assessed by the AP response to tail pinch, with increasing levels of arousal giving rise to irregular AP readings. Booster doses of urethane (250 mg/kg, s.c.) are given as needed.
Bilateral craniotomies (approximately 4 mm×11 mm) are performed overlying the frontoparietal cortices taking care to leave the dura intact. Halothane is delivered at a reduced rate of 1% during cranial surgery and discontinued afterward. A small volume (about 0.2 ml) of arterial blood is sampled after completion of all surgery for measurement of PO2, PCO2 and pH by a blood gas analyzer. Arterial blood gases are maintained so that PO2 was greater than 100 mm Hg, PCO2 =33-38 mmHg, and pH=7.35-7.45. Maintaining these values is accomplished by adjusting the stroke volume of the ventilator. Once appropriate physiological parameters are obtained (approximately 30 min), the experimental protocol is initiated.
The basal forebrain (BF) is stimulated with cathodal current delivered through a stainless steel concentric bipolar electrode ([…]) made by Rhodes Medical Instruments (Model SNEX-100). Electrical pulses are generated by a square wave stimulator (Grass, Model S-88) and constant current is passed through a photoelectric stimulus-isolation unit (Grass, Model PSIU6). The stimulus current is measured on an oscilloscope by continuously displaying the voltage drop across a 10-ohm resistor.
The procedure for eliciting an increased cortical CBF response requires the stereotaxic placement of the stimulating electrode into the BF. For positioning, the electrode is inclined posteriorly to 18 degrees, and the stereotaxic coordinates used were 5.0 mm posterior to, and 2.6 mm lateral to bregma (stereotaxic zero reference point). […] These parameters have been shown previously to elicit maximal increases in cortical CBF (Arneric, Excerpta Medica International Congress Series, 869:381, 1989). The region of the BF that selectively affects cortical CBF is restricted, with electrode movements of 0.5 mm dorsal or ventral to this site eliciting potent vasodepressor responses in addition to the increases in CBF. […] When CBF increases of approximately 100% or greater are repeatedly obtained in the absence of significant changes in AP (<10 mm Hg) or HR (<10 beats/min.), and when the perfusion rate is stable in the absence of BF stimulation, the experimental testing is started.
The principles and technical aspects of laser-doppler flowmetry (LDF) are presented in detail in Bonner et al., Appl. Opt., 1981, 20:2097 and Stern et al., Am. J. Physiol., 1977, 232:H441. […]

[2] = test system: retention of the avoidance response; assay: Inhibitory avoidance test; type: in vivo
From the text: The inhibitory (or sometimes called passive) avoidance (IA) test is a well-accepted animal model for learning/memory and is widely used to assess the activity of novel cognition enhancers in enhancing cognitive function (Wanibuchi et al., Eur. J. Pharmacol., 1990, 187:479). According to this test, animals are placed in the illuminated (12×14×11 cm) portion of a two-chambered box, from which they enter through a guillotine door to the larger (24×13.5×12 cm) dark compartment of the box. Entry to the dark compartment is accompanied by a mild (0.35 mA), brief (2 seconds) footshock. Initial latencies to cross are recorded, with an imposed 60 second ceiling. Following a 24 hour retention interval, animals are returned to the illuminated chamber, and latency to return to the dark compartment is again recorded, with a ceiling of 180 seconds. No footshock is administered on the test day.
Twelve animals were used in each group.

ethanol-induced narcosis = type: in vivo, male CD1 mice; details: post-treatment
From the text: It is known that administration of ethanol to mice induces a state of narcosis in the animals. […] It is also known that certain compounds can modify the narcotic effect of ethanol in this model.
Animals: Male CD1 mice (Charles-River Co., Portage, Mich.) weighing 25-30 g were used in the experiments. Upon arrival they were caged in groups of 14 and allowed to acclimatize to laboratory conditions for one week before the beginning of the studies. They were fed standard rodent diet with food and water ad libitum.
Duration of sleep time: Mice received intraperitoneal (i.p.) injections of ethanol and either saline or one of the drug treatments. Upon loss of the righting reflex, a timer was started to record the duration of the sleep time until the reflex was recovered. Two types of experiments were conducted to study the effect of drugs before (pre-treatment) or after (post-treatment) the injection of the narcotic dose of ethanol. In the pre-treatment experiments the drugs were injected i.p., 15 minutes before ethanol. In the post-treatment experiments the drugs were administered i.p., 1 minute after the animals lost the righting reflex, which was approximately 5 minutes after administration of ethanol.
Drugs: Ethanol was prepared as a 20% v/v (16% w/v) solution in saline. Based on previous studies, a dose of 87 mmol/kg (4 g/kg) was selected as the narcotic dose. RO 15-4513, the benzodiazepine receptor inverse agonist discussed in the Background section, was purchased from RBI (Natick, Mass.). It was dissolved in saline solution with Tween-80 and ultrasonically homogenized for 3 minutes. […] The compounds of Examples 2 and 4, both novel neuronal nicotinic receptor ligands according to the present invention, were also dissolved in saline to the desired concentrations.

1-4 Hz slow wave EEG = 1-4 Hz slow wave EEG amplitude; type: in vivo, male Wistar rats

## Cc1cc([C@@H]2CCCN2C)on1.O=C(O)C(=O)O [Example 2, 3-Methyl-5-(1-methyl-2(S)-pyrrolidinyl)-isoxazole oxalate salt]
[1]; 0.004 μmol/kg i.v.
  BF-elicited CBF % change from pre-drug control: +68%
  MAP % change from pre-drug control: +5%
  resting CBF % change from pre-drug control: +5%
[1]; 0.040 μmol/kg i.v.
  MAP % change from pre-drug control: -5%
  resting CBF % change from pre-drug control: -2%
[1]; 0.040 μmol/kg i.v., *p < 0.05
  BF-elicited CBF % change from pre-drug control: +60%
[1]; 0.400 μmol/kg i.v.
  MAP % change from pre-drug control: -13%
  resting CBF % change from pre-drug control: -6%
[1]; 0.400 μmol/kg i.v., *p < 0.05
  BF-elicited CBF % change from pre-drug control: +68%
[1]; i.v., low concentrations, n=3
  effect on resting CBF and the BF-elicited CBF response: effective in enhancing resting CBF and the BF-elicited CBF response
[1]; i.v., oxalate salt
  effects on MAP / blood pressure: No remarkable effects on MAP; also recorded: no overt effects on blood pressure
[2]; dose relative to (-)-nicotine
  equally efficacious at fraction of the dose of (-)-nicotine in IA: 1/17
[2]; i.p. 15 min before training, retention at 24 h, p<0.05, oxalate salt
  Inhibitory Avoidance (IA) result: significantly facilitated the retention of the avoidance response; also recorded: significant
ethanol-induced narcosis; 0.062 μmol/kg i.p.
  Sleeping time: 91 ± 20 % of controls
ethanol-induced narcosis; 0.19 μmol/kg i.p.
  Sleeping time: 68 ± 15 % of controls
ethanol-induced narcosis; 0.62 μmol/kg i.p.
  Sleeping time: 51 ± 8 % of controls
ethanol-induced narcosis; i.p., p<0.05, one-tailed t test
  effect of post-treatment on ethanol-induced narcosis: significantly reduced
1-4 Hz slow wave EEG; 1.9 μmol/kg i.p.
  1-4 Hz amplitude: 27.3 ± 5.0 μVolts
1-4 Hz slow wave EEG; i.p.
  effect on low frequency (1-4 Hz) EEG slow-wave patterns: does not affect those patterns
